Measured values published in ChEMBL document CHEMBL3352646, “New imidazo[1,2-b]pyrazoles as anticancer agents: synthesis, biological evaluation and structure activity relationship analysis” (Eur J Med Chem, 2014).

What was measured:
[1] = Anticancer activity mouse B16F10 cells assessed as growth inhibition by MTT colorimetric assay; assay type: functional, cell-based; conditions: B16-F10
[2] = test system: SK-MEL-28; test: Anticancer activity human SK-MEL-28 cells assessed as growth inhibition by MTT colorimetric assay; assay type: functional, cell-based
[3] = Anticancer activity human Hs683 cells assessed as growth inhibition by MTT colorimetric assay; assay type: functional, cell-based; conditions: Hs 683
[4] = Anticancer activity human U373 cells assessed as growth inhibition by MTT colorimetric assay; assay type: functional, cell-based, U-373MG ATCC; conditions: U373 MG
[5] = test system: MCF7; test: Anticancer activity human MCF7 cells assessed as growth inhibition by MTT colorimetric assay; assay type: functional, cell-based
[6] = test system: A549; test: Anticancer activity human A549 cells assessed as growth inhibition by MTT colorimetric assay; assay type: functional, cell-based
[7] = Cytotoxicity against human NHLF cells by MTT colorimetric assay; assay type: cell-based
[8] = test system: NHDF; test: Cytotoxicity against human NHDF cells by MTT colorimetric assay; assay type: cell-based

Structure (SMILES)	IC50 [2] [µM]	IC50 [5] [µM]	IC50 [6] [µM]	IC50 [1] [µM]	IC50 [3] [µM]	IC50 [4] [µM]	Activity [7]	Activity [8]
COc1ccc(-c2cn3nc(-c4ccccc4)c(C(=O)N4CCN(C)CC4)c3n2C)cc1	> 100	88	> 100	74	> 100	> 100		
COc1ccc(-c2cn3nc(-c4ccccc4)c(C(=O)N4CCOCC4)c3n2C)cc1	> 100	> 100	> 100	76	> 100	> 100		
COc1ccc(-c2c(-c3ccc(C(F)(F)F)cc3)n3nc(-c4ccccc4)cc3n2C)cc1	> 100	> 100	> 100		> 100	> 100		
COc1ccc(-c2c(-c3ccc(C(F)(F)F)cc3)n3nc(-c4ccccc4)c(CN4CCN(C)CC4)c3n2C)cc1	19	20	20	23	21	24		
COc1ccc(-c2c(-c3ccc(C)cc3)n3nc(-c4ccccc4)c(CN4CCN(C)CC4)c3n2C)cc1	21	18	20	12	18	19		
COc1ccc(-c2c(-c3ccncc3)n3nc(-c4ccccc4)c(CN4CCOCC4)c3n2C)cc1	5	16	5	2	3	12		

Further lines, with some results ahead:

IC50 [2] [µM]	IC50 [5] [µM]	IC50 [6] [µM]	Structure (SMILES)	IC50 [1] [µM]	IC50 [3] [µM]	IC50 [4] [µM]	Activity [7]	Activity [8]
14	5	9	COc1ccc(-c2cn3nc(-c4ccccc4)c(CN4CCOCC4)c3n2C)cc1	5	5	4		
16	35	22	COc1ccc(-c2c(-c3ccccc3C#N)n3nc(-c4ccccc4)cc3n2C)cc1		26	13		
> 100	> 100	> 100	COc1ccc(-c2c(-c3ccc(OC)cc3)n3nc(-c4ccccc4)cc3n2C)cc1		> 100	96		
29	75	31	COc1ccc(-c2c(-c3cccc(C)c3)n3nc(-c4ccccc4)cc3n2C)cc1		59	46		
2.3	1.9	1.3	COc1ccc(-c2c(-c3ccc(C(F)(F)F)cc3)n3nc(-c4ccccc4)c(CN4CCOCC4)c3n2C)cc1	2.1	0.9	0.8	Non-toxic	Non-toxic
> 100	45	37	COc1ccc(-c2c(-c3ccc(C)cc3)n3nc(-c4ccccc4)c(CN4CCOCC4)c3n2C)cc1	46	48	30		
39	72	51	COc1ccc(-c2c(-c3ccc(C)cc3)n3nc(-c4ccccc4)c(CN4CCCCC4)c3n2C)cc1	25	37	33		
28	59	37	COc1ccc(-c2c(-c3ccc(C(F)(F)F)cc3)n(C)c3c(CN4CCOCC4)c(-c4ccccc4)nn23)cc1	38	62	20		
